Reference: patent US20090131354A1, “miR-126 REGULATED GENES AND PATHWAYS AS TARGETS FOR THERAPEUTIC INTERVENTION” (priority 2007, published 2009)

Tests used:
Assay type in all cases: cell-based, human
H1650 lung cancer cells = assay: Alamar Blue proliferation assay, H1650
Description: (§1) The inventors assessed the therapeutic effect of hsa-miR-126 for lung cancer by using 11 individual lung cancer cell lines. To measure cellular proliferation of lung cancer cells, the following non-small cell lung cancer (NSCLC) cells were used: cells derived from lung adenocarcinoma (A549, H1299, H522, H838, Calu-3, HCC827, HCC2935), cells derived from lung squamous cell carcinoma (H520, H226), cells derived from lung bronchioalveolar carcinoma (H1650), and cells derived from lung large cell carcinoma (H460). Synthetic hsa-miR-126 (Pre-miR™-hsa-miR-126, Ambion cat. no. AM17100) or negative control (NC) miRNA (Pre-miR™ microRNA Precursor Molecule-Negative Control #2; Ambion cat. no. AM17111) was delivered via lipid-based transfection into A549, H1299, H522, H838, Calu-3, HCC827, HCC2935, H520, H1650, and H460 cells, and via electroporation into H226 cells.
(§2) Lipid-based reverse transfections were carried out in triplicate according to a published protocol (Ovcharenko et al., 2005) and the following parameters: Cells (5,000-12,000 per 96 well), 0.1-0.2 μl Lipofectamine™ 2000 (cat. no. 11668-019, Invitrogen Corp., Carlsbad, Calif., USA) in 20 μl OptiMEM (Invitrogen), 30 nM final concentration of miRNA in 100 μl. Electroporation of H226 cells was carried out using the BioRad Gene Pulser Xcell™ instrument (BioRad Laboratories Inc., Hercules, Calif., USA) with the following settings: 5×10^6 cells with 5 μg miRNA in 200 μl OptiMEM (1.6 μM miRNA), square wave pulse at 250 V for 5 ms. Electroporated H226 cells were seeded at 7,000 cells per 96-well in a total volume of 100 μl. All cells except for Calu-3 cells were harvested 72 hours post transfection or electroporation for assessment of cellular proliferation. Calu-3 cells were harvested 10 days post transfection. Proliferation assays were performed using Alamar Blue (Invitrogen) following the manufacturer's instructions. As a control for inhibition of cellular proliferation, siRNA against the motor protein kinesin 11, also known as Eg5, was used. […]

HCC827 lung cancer cells = assay: Alamar Blue proliferation assay, HCC827; conditions: relative to NC miRNA (100%)
Description: as §1, §2

H460 lung cancer cells = assay: Pair-wise miRNA combinations, Alamar Blue proliferation; conditions: for % proliferation: mock-transfected cells, 48 h
Description: miRNAs function in multiple pathways controlling multiple cellular processes. Cancer cells frequently show aberrations in several different pathways, which determine their oncogenic properties. […] The inventors assessed the efficacy of pair-wise miRNA combinations, administering hsa-miR-126 concurrently with either hsa-miR-34a, hsa-miR-124a, hsa-miR-147, hsa-let-7b, hsa-let-7c or hsa-let-7g (Pre-miR™ miRNA, Ambion cat. no. AM17100). H460 lung cancer cells were transiently reverse-transfected in triplicates with each miRNA at a final concentration of 300 pM, resulting in 600 pM of oligonucleotide. For negative controls, 600 pM of Pre-miR™ microRNA
Precursor Molecule-Negative Control #2 (Ambion cat. no. AM17111) were used. To correlate the effect of various combinations with the effect of the sole miRNA, each miRNA at 300 pM was also combined with 300 pM negative control miRNA. Reverse transfection was carried using the following parameters: 7,000 cells per 96 well, 0.15 μl Lipofectamine™ 2000 (Invitrogen) in 20 μl OptiMEM (Invitrogen), 100 μl total transfection volume. As an internal control for the potency of miRNA, etoposide was added at 10 μM and 50 μM to mock-transfected cells, 24 hours after transfection for the following 48 hours. Cells were harvested 72 hours after transfection and subjected to Alamar Blue assays (Invitrogen). Percent proliferation values from the Alamar Blue assay were normalized to those obtained from cells treated with 600 pM negative control miRNA. Data are expressed as % proliferation relative to negative control miRNA-treated cells (Table 8).
Additive activity of pair-wise combinations (e.g. hsa-miR-126 plus hsa-let-7b) is defined as an activity that is greater than the sole activity of each miRNA (e.g., the activity of hsa-miR-126 plus hsa-let-7b is greater than that observed for hsa-miR-126 plus NC and the activity of hsa-miR-126 plus hsa-let-7b is greater than that observed for hsa-let-7b plus NC). […]

H522 lung cancer cells = assay: Alamar Blue proliferation assay, H522; conditions: relative to NC miRNA (100%)
Description: as §1, §2

H838 lung cancer cells = assay: Alamar Blue proliferation assay, H838; conditions: relative to NC miRNA (100%)
Description: as §1, §2

Molecule | % proliferation (H1650 lung cancer cells; H1650, 10 μM, relative to NC miRNA (100%)) [%] | % proliferation (H1650 lung cancer cells; H1650, relative to NC miRNA (100%)) [%] | % proliferation (HCC827 lung cancer cells; HCC827, 30 nM) [%] | % proliferation (HCC827 lung cancer cells; HCC827, 10 μM) [%] | % proliferation (H460 lung cancer cells; H460, 10 μM) [%] | % proliferation (H460 lung cancer cells; H460, 50 μM) [%] | % proliferation (H522 lung cancer cells; H522, 10 μM) [%] | % proliferation (H522 lung cancer cells; H522, 50 μM) [%] | % proliferation (H838 lung cancer cells; H838, 30 nM) [%] | % proliferation (H838 lung cancer cells; H838, 50 μM) [%] | % proliferation (H1650 lung cancer cells; H1650, 30 nM, 72 h, relative to NC miRNA (100%)) [%] | % proliferation (HCC827 lung cancer cells; HCC827, 30 nM, 72 h) [%] | reduction of proliferation (H460 lung cancer cells; H460, 300 pM) [%] | % proliferation (H522 lung cancer cells; H522, 30 nM, 72 h) [%] | % proliferation (H838 lung cancer cells; H838, 30 nM, 72 h) [%]
COc1cc([C@@H]2c3cc4c(cc3[C@@H](O[C@@H]3O[C@@H]5CO[C@@H](C)O[C@H]5[C@H](O)[C@H]3O)[C@H]3COC(=O)[C@H]23)OCO4)cc(OC)c1O [etoposide] | 90.98 | 60.31 | 82.53 | 98.95 | 20.19 | 14.94 | 82.13 | 61.08 | 89.71 | 36.97 | – | – | – | – | –
hsa-miR-126 (UCGUACCGUGAGUAAUAAUGC; synthetic pre-miR form, further chemistry not given here) [Synthetic hsa-miR-126 (Pre-miR™-hsa-miR-126, Ambion cat. no. AM17100)] | – | – | – | – | – | – | – | – | – | – | 80.67 | 84.31 | 10.54 | 74.62 | 74.05
